Data taken from patent publication US20250388574A1, “HETEROCYCLIC COMPOUNDS AS TRIGGERING RECEPTOR EXPRESSED ON MYELOID CELLS 2 AGONISTS AND METHODS OF USE” (AMGEN INC., priority 2020, published 2025).
pEC50: −log10 of the molar value.

Target: hTREM2 (Homo sapiens, UniProt Q9NZC2)
Experiment: Phospho-Syk AlphaScreen/AlphaLISA assay in TREM2 and DAP12 overexpressing HEK293 cells (Example A1)
Type: cell-based
Design: expressed in transfected cells
Details: HEK293 cells; for pEC50: read-out: hTREM2 EC50
Description: Pharmacological measurements of TREM2 signaling through DAP12 were made with TREM2 and DAP12 overexpressing HEK293 cells stable cell lines that had been single-cell cloned (“TREM2/DAP12-HEK”). The readout of the TREM2 signaling utilized Perkin Elmer AlphaScreen/AlphaLISA technology monitoring the phosphorylation levels of the Syk kinase. TREM2/DAP12-HEK cell lines were cultured in DMEM-F12 (Corning 10-092-CM) supplemented with 1× Penicillin/Streptomycin (Corning 30-002-CI), 1× GlutaMAX (Gibco 35050-061), and 10% Fetal Bovine Serum (Life Technologies 10099) referred to as “HEK Culture Medium”. Suspensions of TREM2/DAP12-HEK cells were prepared in HEK Culture Medium and dispensed into 384-well poly-D-lysine coated microplates (Corning 354661) at a density of 20,000 cells/well using a Multidrop Combi peristaltic microplate dispenser (Thermo), 25 uL volume of cell suspension/well. Plates containing cells were then incubated for 20 hours in a humidified cell culture incubator at 37° C. with 5% CO2 (Thermo). […] Assay Buffer contained diluted test articles (in 1% final DMSO concentration for compounds) or 100 nM anti-human/mouse TREM2 antibody (R&D Systems MAB17291) as a positive control, 100 nM or rat IgG2B isotype Ab as a negative control (R&D Systems MAB0061). Incubated the plates with test articles and controls for 45 minutes at room temperature and then aspirated/removed the medium from each well of the plates. Used a Multidrop Combi peristaltic liquid handler (Thermo) to dispense 15 uL/well of “Cell Lysis Immunoassay Buffer”. The Cell Lysis Immunoassay Buffer contained M-PER Mammalian Protein Extraction Reagent (Pierce/ThermoFisher 78505), 1× Halt Phosphatase Inhibitor Cocktail (ThermoFisher #78427), 0.1875 nM anti-phospho-Syk ([…]/526) ([…]) rabbit mAb (Cell Signaling Technologies catalog #2710), and 1.5 nM biotinylated Mouse anti-human Syk (4D10) antibody (BD Biosciences, catalog #624008). Incubated plates for 1 hour at room temperature after the addition of the Cell Lysis Immunoassay Buffer. Used the Multidrop Combi liquid handler to dispense 15 μL of AlphaScreen Acceptor Bead Solution containing 7.5 μg/mL anti-rabbit IgG (Fc specific) AlphaLISA Acceptor Beads (Perkin Elmer A[…]) in 1× Immunoassay buffer (Perkin Elmer A[…]) to each well of the microplates. Incubated plates for 2 hours at room temperature. Following the incubation with the AlphaLISA Acceptor Bead Solution, used a Multidrop Combi liquid handler (Thermo) to dispense 15 μL of AlphaScreen Donor Bead Solution containing 30 μg/mL of AlphaScreen Streptavidin Donor beads (Perkin Elmer 6760002B) in 1× Immunoassay buffer (Perkin Elmer A[…]) to each well of the microplates. Incubated microplates for 2 hours protected from light sources as the AlphaScreen reagents are light sensitive. Once the final incubation was completed, acquired AlphaScreen signal from the donor and acceptor beads using an Envision high throughput multi-modal microplate reader (Perkin Elmer) calibrated to the plate type with the AlphaScreen mirror and filter-set in 384-well mode, 680 nanometer excitation wavelength. The total measurement time per well was 550 milliseconds with a 180 millisecond excitation time. After reading the AlphaScreen signal for each well of the microplates, on a plate-by-plate basis, each raw test article well value (x) was normalized to a Percent of Control (“POC”) value using the following formula: […] Each plate contained 12 of each type of control wells that were used to generate the mean values. For concentration response curve analysis with test articles tested at various concentrations, the % of activation values were analyzed with 4 Parameter Logistic or Sigmoidal Dose-Response Models using GeneData Screener (GeneData, AG) or GraphPad Prism 7 (Graphpad Software, Inc.). […] This assay may be used to test any of the compounds described herein to assess and characterize a compound's ability to act as an agonist of TREM2.

hTREM2, sequence (Q9NZC2 19-230): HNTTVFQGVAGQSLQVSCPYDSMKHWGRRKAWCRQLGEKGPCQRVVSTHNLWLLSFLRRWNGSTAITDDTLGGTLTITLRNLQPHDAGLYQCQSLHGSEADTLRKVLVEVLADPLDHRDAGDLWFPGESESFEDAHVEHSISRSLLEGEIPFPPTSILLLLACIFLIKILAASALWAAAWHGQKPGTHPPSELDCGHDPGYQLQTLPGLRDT
hTREM2, sequence (O43914 22-113 partner): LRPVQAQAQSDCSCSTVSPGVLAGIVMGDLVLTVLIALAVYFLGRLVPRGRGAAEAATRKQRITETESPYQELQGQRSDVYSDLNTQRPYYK

Row | Emax | pEC50 | Molecule
1 | +++ (Emax>200 and ≤300) | 5.52 to 6.30 | 5-(4-chloro-2-fluorophenyl)-2,3-dimethyl-7-((2R,4R)-2-(1-methyl-1H-pyrazol-4-yl)tetrahydro-2H-pyran-4-yl)pyrido[4,3-d]pyrimidin-4(3H)-one and 5-(4-chloro-2-fluorophenyl)-2,3-dimethyl-7-((2S,4S)-2-(1-methyl-1H-pyrazol-4-yl)tetrahydro-2H-pyran-4-yl)pyrido[4,3-d]pyrimidin-4(3H)-one [Example 161]
2 | +++ (Emax>200 and ≤300) | 6.30 to 7.30 | Cc1nc2cc(C3=CC(c4cnn(C)c4)OCC3)nc(-c3ccc(Cl)cc3F)c2c(=O)n1C (racemic) [Example 164, 5-(4-chloro-2-fluorophenyl)-2,3-dimethyl-7-(6-(1-methyl-1H-pyrazol-4-yl)-3,6-dihydro-2H-pyran-4-yl)pyrido[4,3-d]pyrimidin-4(3H)-one]
3 | ++++ (Emax>300) | 5.52 to 6.30 | Cc1nc2cc([C@@H]3CCO[C@@H](c4cccnc4)C3)nc(-c3ccc(Cl)cc3F)c2c(=O)n1C (relative stereo) [Example 176, 5-(4-chloro-2-fluorophenyl)-2,3-dimethyl-7-((2R,4R)-2-(3-pyridinyl)tetrahydro-2H-pyran-4-yl)pyrido[4,3-d]pyrimidin-4(3H)-one and 5-(4-chloro-2-fluorophenyl)-2,3-dimethyl-7-((2S,4S)-2-(3-pyridinyl)tetrahydro-2H-pyran-4-yl)pyrido[4,3-d]pyrimidin-4(3H)-one]
4 | ++++ (Emax>300) | > 7.30 | CCn1cc([C@H]2CN(c3cc4nc(C)n(C)c(=O)c4c(-c4ccc(Cl)cc4F)n3)CCO2)cn1 (single isomer, unassigned) [Example 23]
5 | ++++ (Emax>300) | 6.30 to 7.30 | CCn1cc([C@@H]2CN(c3cc4nc(C)n(C)c(=O)c4c(-c4ccc(Cl)cc4F)n3)CCO2)cn1 (single isomer, unassigned) [Example 24]
6 | +++ (Emax>200 and ≤300) | 5.52 to 6.30 | Cc1nc2cc(N3C[C@H](c4cnn(C)c4)OC[C@H]3C)nc(-c3ccc(Cl)cc3F)c2c(=O)n1C (single isomer, unassigned) [Example 25]
7 | +++ (Emax>200 and ≤300) | 5.52 to 6.30 | Cc1nc2cc(N3C[C@@H](c4cnn(C)c4)OC[C@H]3C)nc(-c3ccc(Cl)cc3F)c2c(=O)n1C (single isomer, unassigned) [Example 26]
8 | ++++ (Emax>300) | 6.30 to 7.30 | Cc1nc2cc(N3C[C@@H](C)O[C@H](c4cnn(C)c4)C3)nc(-c3ccc(Cl)cc3F)c2c(=O)n1C (single isomer, unassigned) [Example 27]
9 | +++ (Emax>200 and ≤300) | > 7.30 | Cc1nc2cc(N3C[C@@H](C)O[C@@H](c4cnn(C)c4)C3)nc(-c3ccc(Cl)cc3F)c2c(=O)n1C (single isomer, unassigned) [Example 28]
10 | +++ (Emax>200 and ≤300) | 5.52 to 6.30 | Cc1nc2cc(N3C[C@@H](c4cnn(C)c4)O[C@@H](C)C3)nc(-c3ccc(Cl)cc3F)c2c(=O)n1C (single isomer, unassigned) [Example 29]
11 | +++ (Emax>200 and ≤300) | 5.52 to 6.30 | Cc1nc2cc(N3C[C@H](C)O[C@@H](c4cnn(C)c4)C3)nc(-c3ccc(Cl)cc3F)c2c(=O)n1C (single isomer, unassigned) [Example 30]
12 | ++++ (Emax>300) | 5.52 to 6.30 | Cc1nc2cc(N3C[C@@H](C)O[C@@H](C4CC4)C3)nc(-c3ccc(Cl)cc3F)c2c(=O)n1C (single isomer, unassigned) [Example 34]
13 | +++ (Emax>200 and ≤300) | 5.52 to 6.30 | Cc1nc2cc(N3C[C@H](C)O[C@@H](C4CC4)C3)nc(-c3ccc(Cl)cc3F)c2c(=O)n1C (single isomer, unassigned) [Example 35]
14 | +++ (Emax>200 and ≤300) | 4.00 to 5.52 | Cc1nc2cc(N3C[C@@H](C)O[C@H](C4CC4)C3)nc(-c3ccc(Cl)cc3F)c2c(=O)n1C (single isomer, unassigned) [Example 36]
